Consider 44 compounds from US9475783B2, “Antimicrobial agents” (Rutgers, the State University of New Jersey, priority 2012, dated 2016).

In brackets after ≈: the same amount, converted by molar mass. Where only a bound is given, the exact number is not on record here.

One series has as its system MSSA. Description: Test A antibacterial assay, broth microdilution MIC. In kind it is cell-based. The conditions noted are these: Staphylococcus aureus, growth read after 24 to 48 hours at OD 600 nm. The method, then: Test A. Antibacterial Assay. Antibacterial activity can be determined as per Clinical and Laboratory Standards Institute (CLSI) guidelines using a broth microdilution assay in which log-phase bacteria are grown at 37° C. in appropriate medium containing two-fold serial dilutions of a compound to yield final concentrations ranging from 256 to 0.06 μg/mL. For determination of minimal inhibitory concentration (MIC) values, bacterial growth is monitored after 24 to 48 hours by measuring optical density at 600 nm.
For orientation: In broth dilution the organism is exposed to a series of concentrations in liquid medium.

A further series has as its system MSSA (S. aureus). Put plainly: Test E in vivo efficacy, murine septicemia model of staphylococcal infection. The conditions noted are these: for mice surviving the infection / mice: i.v. treatment. The method, then: Test E. In Vivo Efficacy in the Mouse Peritonitis or Mouse Septicemia Model.
Assessment of in vivo efficacy was performed using femal Swiss Webster mice (obtained from Taconic Farms, Germantown, Pa.) employing a murine septicemia model of staphylococcal infection. For bioassays examining efficacy against MSSA, each mouse was inoculated intraperitoneally with 500 μl of an inoculum containing 1.0×10^8 CFU per ml of S. aureus. All of the in vivo efficacy studies include a negative control group of infected mice treated intravenously either with vehicle alone (6 mice) or untreated (6 mice), as well as a positive control groups of infected mice treated with 200 ul of […] of vancomycin administered intravenously (4 mice) and a second control group using 2.0 mg/ml of oxacillin (4 mice). After the mice were infected, groups of six mice are treated by tail vein injection with 300 ul of a solution containing 2.0 mg of Example 6 in 10 mM citrate. Mice received four doses Example 6 administered with a 15 minute interval. Control mice are treated with vancomycin qd, oxacillin b.i.d, or vehicle alone. […] Animals are given food and water ad libitum. Survival within each experimental group is monitored over a 24 hout time period. Monitoring of the mice began 4 hours after the start of experiment. All of the effective mice treated with Example 6 survived the infection (5/5, 100% survival). All of the oxacillin-treated (4/4) and vancomycin-treated mice (4/4) survived the infection. All of the vehicle controls died within 12 hours, with 0/6 or 0% survival. Among the infected mice that receive no treatment, only 1/6 survived (16.7% survival).

The nature of series [1]: Test D formulation of test compounds (solubility in vehicles). The series is classed as physicochemical. To be noted: for concentration readily formulated: 10 mM solutions of citrate, methane sulfonate, p-toluene sulphonate, phosphoric acid, and tartaric acid. The method, then:
Test D. Formulation of Test Compounds.
The literature vehicle reported for formulation of 5-chloro-2-(2,4-difluoro-3-aminocarbonylphenoxy)methylpyridylthiazole for i.v. administration consists of 20% DMA, 40% polyethylene glycol and 40% saline. […] Mice that were treated 15 minutes later with a second injection consisting of 150 μl of this vehicle died. In addition, concentrations of 5-chloro-2-(2,4-difluoro-3-aminocarbonylphenoxy)methylpyridylthiazole at or above 2.2 mg/ml in this vehicle were not completely dissolved and existed as a suspension (in a 28 g mouse this would be 15.7 mg/kg). A number of other formulations with 5-chloro-2-(2,4-difluoro-3-aminocarbonylphenoxy)methyl […] were tried, such as 20% DMA, 40% proplyeneglycol in 8% Cremophor-EL. […] Because of the limited solubility and the absence of a suitable vehicle, the literature study where it was reported that a 30 mg/kg dose of 5-chloro-2-(2,4-difluoro-3-aminocarbonylphenoxy)methylpyridylthiazole was delivered to mice in a single injection could not be repeated. […] In some instances the addition of 10-30% propylene glycocol did allow for greater retention of solubility of the test compounds. Example 4 was also found to formulate well at a 2.0 mg/ml concentration in 10 mM malic acid with 20% propylene glycol and with 10 mM p-toluenesulphonate alone. Example 6 did formulate well in 10 mM citrate alone at a concentration of 2.0 mg/ml. […] The ability of mice to tolerate this vehicle did allow for multiple dosing in the assessment of Example 6 in vivo and to actually deliver higher doses of the Example 6 because of the compatibility of a predominately aqueous vehicle.

[2] abbreviates: MSSA-infected mice, 24 h monitoring.

Consider `CCN(CC)CNC(=O)c1c(Cl)ccc(OCc2nc3cc(Cl)ccc3s2)c1F` [Example 42], for which the minimum inhibitory concentration (MIC) in the series on MSSA turned out to be 2 µg/mL (≈ 4.38 µM).
Still for that read-out and setting: in the case of `CC(C)(C)NCNC(=O)c1c(F)ccc(OCc2nc3cc(Cl)ccc3s2)c1F` [Example 40] it was 0.5 µg/mL (≈ 1.14 µM).
Regarding `Cc1onc(-c2ccccc2)c1C(=O)N[C@@H]1C(=O)N2[C@@H]1SC(C)(C)[C@@H]2C(=O)O` [oxacillin, reference compound], the “mice surviving the infection / mice” value with MSSA (S. aureus) (setting [2]) was 4/4.
Regarding `Cc1nc(COc2ccc(F)c(C(=O)NCN(C)C)c2F)sc1-c1ccncc1` [Example 1], in the series with MSSA, the MIC was above 64 µg/mL.
On the same count and under the same terms, in the case of `COc1ccc(CN(C)CNC(=O)c2c(F)ccc(OCc3nc4cc(Cl)ccc4s3)c2F)cc1` [Example 10] it was 0.25 µg/mL (≈ 0.483 µM); in that of `CC1CCN(CNC(=O)c2c(F)ccc(OCc3nc4cc(Cl)ccc4s3)c2F)CC1` [Example 18], 0.25 µg/mL (≈ 0.537 µM).
`CN(C)CNC(=O)c1c(F)ccc(OCc2nc3cc(Cl)cnc3s2)c1F` [Example 6] returned an MIC with MSSA of 0.25 µg/mL (≈ 0.606 µM). The same compound yielded a concentration formulated well in series [1] (10 mM citrate alone) of 2000 µg/mL. This compound yielded a concentration readily formulated in series [1] of 2000 µg/mL. In the series on MSSA (S. aureus) (MSSA-infected mice, i.v. tail vein, four doses at 15 minute interval in 10 mM citrate, 24 h monitoring), this compound showed a survival of 100%. In addition, the “mice surviving the infection / mice” value with MSSA (S. aureus) (setting [2]) is listed as 5/5. Besides, the “death during the course of treatment” value in the series on MSSA (S. aureus) (group of six mice, 300 ul i.v. of 2.0 mg solution in 10 mM citrate, four doses) is “One of the mice treated with Example 6 died during the course of treatment”.
`CNCNC(=O)c1c(F)ccc(OCc2nc3cc(Cl)ccc3s2)c1F` [Example 27]: in the series with MSSA, inhibition of growth (MIC) required 0.125 µg/mL (≈ 0.314 µM).
Still for that read-out and setting: in the case of `O=C(NCNCc1ccccc1)c1c(F)ccc(OCc2nc3cc(Cl)ccc3s2)c1F` [Example 41] it was 0.5 µg/mL (≈ 1.06 µM); in that of `Cc1nc(COc2ccc(F)c(C(=O)NCN(C)Cc3ccc(C(F)(F)F)cc3)c2F)sc1-c1ccc(C(C)(C)C)cc1` [Example 35], above 64 µg/mL; in that of `Cc1csc(COc2ccc(F)c(C(=O)NCN(C)C)c2F)n1` [Example 46], 8 µg/mL (≈ 23.4 µM).
Still for that read-out and setting: then `Cc1nc(COc2ccc(F)c(C(=O)NCN3CCC(C)CC3)c2F)sc1-c1ccc(C(F)(F)F)cc1` [Example 43], with 2 µg/mL (≈ 3.71 µM); and `CN(CNC(=O)c1c(F)ccc(OCc2nc3cc(Cl)ccc3s2)c1F)Cc1ccc(C(F)(F)F)cc1` [Example 12], with 0.5 µg/mL (≈ 0.899 µM).
The same measure, in the same setting: then `Cc1ccc(CN(C)CNC(=O)c2c(F)ccc(OCc3nc4cc(Cl)ccc4o3)c2F)cc1` [Example 25], with 16 µg/mL (≈ 32.9 µM); and `COc1ccc(CN(C)CNC(=O)c2c(F)ccc(OCc3nc4cc(Cl)ccc4o3)c2F)cc1` [Example 26], with 16 µg/mL (≈ 31.9 µM).
`CCN(CC)CNC(=O)c1c(F)ccc(OCc2nc(-c3ccc(C(F)(F)F)cc3)c(Br)o2)c1F` [Example 22] registered a minimum inhibitory concentration (MIC) against MSSA of 0.125 µg/mL (≈ 0.222 µM).
On the same count and under the same terms, in the case of `O=C(NC(c1ccccc1)N1CCOCC1)c1c(F)ccc(OCc2nc3cc(Cl)cnc3s2)c1F` (stereo not shown) [Example 29] it was 1 µg/mL (≈ 1.88 µM); in that of `Cc1ccc(CN(C)CNC(=O)c2c(F)ccc(OC(C)c3nc(C)c(-c4ccc(C(C)(C)C)cc4)s3)c2F)cc1` (stereo not shown) [Example 20], 1 µg/mL (≈ 1.73 µM).
For the compound `CN[C@H](CC(C)C)C(=O)N[C@H]1C(=O)N[C@@H](CC(N)=O)C(=O)N[C@H]2C(=O)N[C@H]3C(=O)N[C@H](C(=O)N[C@H](C(=O)O)c4cc(O)cc(O)c4-c4cc3ccc4O)[C@H](O)c3ccc(c(Cl)c3)Oc3cc2cc(c3O[C@@H]2O[C@H](CO)[C@@H](O)[C@H](O)[C@H]2O[C@H]2C[C@](C)(N)[C@H](O)[C@H](C)O2)Oc2ccc(cc2Cl)[C@H]1O` [vancomycin, reference compound], the “mice surviving the infection / mice” value in the series with MSSA (S. aureus) (setting [2]) is recorded as 4/4.
The compound `Cc1ccc(CN(C)CNC(=O)c2c(F)ccc(OCc3nc4cc(Cl)cnc4s3)c2F)cc1` [Example 15] showed a minimum inhibitory concentration (MIC) in the series with MSSA of 0.5 µg/mL (≈ 0.994 µM).
In the series on MSSA, `CN(C)CNC(=O)c1c(F)ccc(OCc2nc3cc(Cl)ccc3s2)c1F` [Example 4] gave a minimum inhibitory concentration (MIC) of 0.125 µg/mL (≈ 0.304 µM). Moreover, the concentration formulated well in series [1] (10 mM malic acid with 20% propylene glycol) and in series [1] (10 mM p-toluenesulphonate alone) was 2000 µg/mL throughout. Besides, in series [1], the concentration readily formulated stood at 2000 µg/mL.
As to `CCN(CC)CNC(=O)c1c(F)ccc(OC(C)c2nc(C)c(-c3ccc(C(C)(C)C)cc3)s2)c1F` (stereo not shown) [Example 19], the lowest concentration to inhibit growth with MSSA (MIC) was 1 µg/mL (≈ 1.94 µM).
Same read-out and setting: in the case of `O=C(NC(c1cccc(Br)c1)N1CCOCC1)c1c(F)ccc(OCc2nc3cc(Cl)ccc3s2)c1F` (stereo not shown) [Example 30] it was 0.5 µg/mL (≈ 0.821 µM); in that of `CN(CNC(=O)c1c(F)ccc(OCc2nc3cc(Cl)cnc3s2)c1F)Cc1ccc(C(F)(F)F)cc1` [Example 13], 1 µg/mL (≈ 1.8 µM).
On the same count and under the same terms, then `C#CCN(C)CNC(=O)c1c(F)ccc(OCc2nc3cc(Cl)ccc3s2)c1F` [Example 39], with 0.25 µg/mL (≈ 0.574 µM).
On the same count and under the same terms, then `Cc1ccc(CN(C)CNC(=O)c2c(F)ccc(OCc3nc(-c4ccc(C(F)(F)F)cc4)c(Br)o3)c2F)cc1` [Example 23], with 0.25 µg/mL (≈ 0.4 µM); and `CCN(CC)CNC(=O)c1c(F)ccc(OCc2nc3cc(Cl)ccc3o2)c1F` [Example 24], with 8 µg/mL (≈ 18.9 µM).
As for `CCN(CC)CNC(=O)c1c(F)ccc(OCc2nc3cc(Cl)ccc3s2)c1F` [Example 9], 0.125 µg/mL (≈ 0.284 µM) was the least that counted as inhibitory in the series on MSSA (MIC).
In turn, `COc1ccc(CN(C)CNC(=O)c2c(F)ccc(OCc3nc4cc(Cl)cnc4s3)c2F)cc1` [Example 11] registered a minimum inhibitory concentration (MIC) in the series with MSSA of 1 µg/mL (≈ 1.93 µM).
The same measure, in the same setting: in the case of `Cc1nc(COc2ccc(F)c(C(=O)NCN(C)C)c2F)sc1-c1ccc(C(C)(C)C)cc1` [Example 34] it was 0.125 µg/mL (≈ 0.264 µM); in that of `CN(C)/C=N/C(=O)c1c(F)ccc(O/C(=C/N(C)C)c2nc3cc(Cl)ccc3s2)c1F` [Example 45], 32 µg/mL (≈ 68.8 µM).
On the same count and under the same terms, then `CN1CCN(C(NC(=O)c2c(F)ccc(OCc3nc4cc(Cl)ccc4s3)c2F)c2ccncc2)CC1` (stereo not shown) [Example 37], with 0.5 µg/mL (≈ 0.919 µM); and `CN1CCN(C(NC(=O)c2c(F)ccc(OCc3nc4cc(Cl)ccc4s3)c2F)c2ccccc2)CC1` (stereo not shown) [Example 38], with 8 µg/mL (≈ 14.7 µM); and `CC1CCN(CNC(=O)c2c(F)ccc(OCc3nc4cc(Cl)cnc4s3)c2F)CC1` [Example 17], with 0.5 µg/mL (≈ 1.07 µM).
On the same count and under the same terms, in the case of `Cc1nc(COc2ccc(F)c(C(=O)NCN3CCC(C)CC3)c2F)sc1-c1ccc(C(C)(C)C)cc1` [Example 21] it was 0.5 µg/mL (≈ 0.948 µM); in that of `C/C(=N\C(=O)c1c(F)ccc(OCc2nc3cc(Cl)ccc3s2)c1F)N(C)C` [Example 44], 2 µg/mL (≈ 4.72 µM); in that of `O=C(NC(c1ccccc1)N1CCOCC1)c1c(F)ccc(OCc2nc3cc(Cl)ccc3s2)c1F` (stereo not shown) [Example 28], 0.25 µg/mL (≈ 0.472 µM).
In the case of `CN(C)/C=N/C(=O)c1c(F)ccc(OCc2nc3cc(Cl)ccc3s2)c1F` [Example 3], the MIC against MSSA is below 0.125 µg/mL.
Same read-out and setting: then `Cc1ccc(CN(C)CNC(=O)c2c(F)ccc(OCc3nc4cc(Cl)ccc4s3)c2F)cc1` [Example 14], with 0.25 µg/mL (≈ 0.498 µM); and `O=C(NCn1ccnc1)c1c(F)ccc(OCc2nc3cc(Cl)ccc3s2)c1F` [Example 2], with above 64 µg/mL; and `CN1CCN(CNC(=O)c2c(F)ccc(OCc3nc4cc(Cl)cnc4s3)c2F)CC1` [Example 8], with 2 µg/mL (≈ 4.27 µM).
`CN1CCN(C(NC(=O)c2c(F)ccc(OCc3nc4cc(Cl)ccc4s3)c2F)c2cccc(Br)c2)CC1` (stereo not shown) [Example 31] came in with an MIC with MSSA of 0.5 µg/mL (≈ 0.804 µM).
As to `CN1CCN(C(NC(=O)c2c(F)ccc(OCc3nc4cc(Cl)cnc4s3)c2F)c2ccccc2)CC1` (stereo not shown) [Example 32], the MIC with MSSA stood at 0.5 µg/mL (≈ 0.919 µM).
On the same count and under the same terms, in the case of `CCN(CC)CNC(=O)c1c(F)ccc(OCc2nc3cc(Cl)cnc3s2)c1F` [Example 16] it was 0.5 µg/mL (≈ 1.13 µM).

One may read the MIC as the least concentration at which growth counts as inhibited.
